Where a SMILES comes first, the peptide text is derived from it.
Tests used:
Type in all cases: cell-based
[1] = system: human red blood cells (hRBC); assay: Hemolytic activity determination; conditions: 2% (v/v) hRBC, 37 °C, 1 h; for Hemolysis% at 256 μg/mL: 256 μg/mL peptide, OD540, 1% Triton X-100 = 100%, average ± standard error of three independent experiments; for curve of hemolysis% vs. peptide concentration (Figure 2): 0–512 μg/mL peptide, compared in words
Protocol: Figure 2 Hemolytic activities of Ctriporin and its analogs against human red blood cells (hRBC). Hemolytic activities of Ctriporin (solid circle), CM1 (open circle), CM2 (open square), CM3 (upward triangle), CM4 (downward triangle), CM5 (half solid circle), CM6 (half solid square), and CM7 (half solid triangle), were measured against 2% (v/v) human red blood cells. The peptide concentrations are 0, 2, 4, 8, 16, 32, 64, 128, 256, and 512 μg/mL. The cells treated with 1% Triton X-100 were treated as 100% hemolysis. All experiments were repeated three times, and the data shown are the average ± standard error.
The hemolytic activities of the peptides were determined against human red blood cells (hRBCs). As described, sodium citrate-anticoagulated hRBCs were washed three times with 0.9% sodium chloride and diluted to a final concentration of 4% (v/v). Then, an equal volume of hRBC solutions was mixed with an equal volume of each peptide in a series of concentrations (0, 2, 4, 8, 16, 32, 64, 128, 256, and 512 μg/mL). After co-incubation at 37 °C for 1 h, the degree of hemolysis of the peptides was determined by detecting the release of hemoglobin from the damaged hRBCs by measuring the optical density at 540 nm (OD540). hRBCs in 0.9% sodium chloride and 1% Triton X-100 were considered 0% and 100% hemolysis, respectively. The results shown are the average ± standard error of data derived from three independent experiments. The percent hemolysis was calculated according to the following equation [53, 54]:Hemolysis (%) = 100 × (Asample − Ablank)/(Apositive − Ablank)

S. aureus ATCC29213 = assay: MIC, broth dilution, standard strain; conditions: broth dilution (CLSI), MHB, 37 °C, 16–20 h
Protocol: (§1) The standard strains, including S. aureus ATCC29213 and ATCC25923, E. faecalis ATCC29212, E. coli ATCC25922 and ATCC35218, A. baumannii ATCC19606, K. pneumoniae ATCC700603, and P. aeruginosa ATCC27853, were purchased from the China Center of Type Culture Collection (CCTCC). The clinical strains of the ESKAPE pathogens were isolated from the affiliated hospitals of Hubei University of Medicine. All of them were stored at −80 °C before use. The drug sensitivities of the clinical strains were determined by the Kirby–Bauer test.
(§2) The MICs were determined using the broth dilution method according to the guidelines of the Clinical and Laboratory Standards Institute (CLSI), as described in the previous studies. Briefly, the bacterial cells were incubated in Mueller–Hinton broth (MHB, Oxoid, Basingstoke, UK) at 37 °C and 150 rpm to the mid-growth phase and diluted to achieve a final concentration of 5 × 10^5 colony-forming units per milliliter (CFU/mL). Then, the cells were mixed with each peptide in different concentrations (1, 2, 4, 8, 16, 32, and 64 μg/mL). […] All experiments were repeated at least three times.

E. coli ATCC35218 = assay: MIC, broth dilution, standard strain; conditions: broth dilution (CLSI), MHB, 37 °C, 16–20 h
Protocol: as §1, §2

P. aeruginosa ATCC27853 = assay: MIC, broth dilution, standard strain; conditions: broth dilution (CLSI), MHB, 37 °C, 16–20 h
Protocol: as §1, §2

E. coli ATCC25922 = assay: MIC, broth dilution, standard strain; conditions: broth dilution (CLSI), MHB, 37 °C, 16–20 h
Protocol: as §1, §2

K. pneumoniae ATCC700603 = assay: MIC, broth dilution, standard strain; conditions: broth dilution (CLSI), MHB, 37 °C, 16–20 h
Protocol: as §1, §2

A. baumannii ATCC19606 = assay: MIC, broth dilution, standard strain; conditions: broth dilution (CLSI), MHB, 37 °C, 16–20 h
Protocol: as §1, §2

S. aureus ATCC25923 = assay: MIC, broth dilution, standard strain; conditions: broth dilution (CLSI), MHB, 37 °C, 16–20 h
Protocol: as §1, §2

E. faecium ATCC29212 = assay: MIC, broth dilution, standard strain; conditions: broth dilution (CLSI), MHB, 37 °C, 16–20 h
Protocol: as §1, §2

standard ESKAPE strains = conditions: broth dilution (CLSI), MHB, 37 °C, 16–20 h; range over all standard strains
Protocol: The ESKAPE pathogens represent the main threat to public health concerning antimicrobial resistance. Therefore, we first evaluated the antimicrobial activities of Ctriporin and its analogs against the standard ESKAPE strains. The minimum inhibitory concentration (MIC) was chosen as the index for the evaluation of each peptide’s activity. […] Note that the MICs of CM4 and CM7 are 4–32 and 8–32 μg/mL, respectively, indicating the existence of significant bacterial species deviations for the antimicrobial activity of these peptides. In addition, the replacement of specific residues, especially Pro^7, may harm the antimicrobial activities of the peptide.
as §1, §2

[2] = 5 × 10^5 CFU/mL, OD630, repeated at least three times

SMILES | Hemolysis% at 256 μg/mL [1] [%] | MICs (S. aureus ATCC29213; [2]) [µg/mL] | MICs (S. aureus ATCC29213; value in parentheses) [µM] | MICs (E. coli ATCC35218; [2]) [µg/mL] | MICs (E. coli ATCC35218; value in parentheses) [µM] | MICs (P. aeruginosa ATCC27853; [2]) [µg/mL] | MICs (P. aeruginosa ATCC27853; value in parentheses) [µM] | MICs (E. coli ATCC25922; [2]) [µg/mL] | MICs (K. pneumoniae ATCC700603; [2]) [µg/mL] | MICs (K. pneumoniae ATCC700603; value in parentheses) [µM] | MICs (A. baumannii ATCC19606; [2]) [µg/mL] | MICs (A. baumannii ATCC19606; value in parentheses) [µM] | MICs (S. aureus ATCC25923; [2]) [µg/mL] | MICs (S. aureus ATCC25923; value in parentheses) [µM] | MICs (E. faecium ATCC29212; [2]) [µg/mL] | MICs (E. faecium ATCC29212; value in parentheses) [µM] | MICs (E. coli ATCC25922; value in parentheses) [µM] | MICs against the ESKAPE pathogens (range over the standard strains of Table 2) (standard ESKAPE strains) [µg/mL] | curve of hemolysis% vs. peptide concentration (Figure 2) [1]
CC[C@H](C)[C@H](NC(=O)[C@H](C)NC(=O)CNC(=O)[C@@H]1CCCN1C(=O)[C@@H](NC(=O)[C@H](CC(C)C)NC(=O)[C@H](CCCCN)NC(=O)[C@H](Cc1c[nH]c2ccccc12)NC(=O)[C@H](CC(C)C)NC(=O)[C@@H](N)Cc1ccccc1)[C@@H](C)CC)C(=O)N[C@@H](CO)C(=O)N[C@@H](C)C(=O)N[C@H](C(=O)N[C@H](C(=O)N[C@@H](CO)C(=O)N[C@@H](CC(C)C)C(=O)N[C@H](C(=O)N[C@@H](CCCCN)C(=O)N[C@@H](CCCCN)C(N)=O)[C@@H](C)CC)[C@@H](C)O)C(C)C [CM1] (H-FLWKLIPGAISAVTSLIKK-NH2; N-terminus assumed) | 75.6 ± 10.1 | 8 | 3.8 | 32 | 15.4 | > 64 | > 30.7 | 8 | 64 | 30.7 | 8 | 3.8 | 16 | 7.7 | 16 | 7.7 | – | – | –
CC[C@H](C)[C@H](NC(=O)[C@H](C)NC(=O)[C@H](CCCCN)NC(=O)[C@@H]1CCCN1C(=O)[C@@H](NC(=O)[C@H](CC(C)C)NC(=O)[C@H](CCCCN)NC(=O)[C@H](Cc1c[nH]c2ccccc12)NC(=O)[C@H](CC(C)C)NC(=O)[C@@H](N)Cc1ccccc1)[C@@H](C)CC)C(=O)N[C@@H](CO)C(=O)N[C@@H](C)C(=O)N[C@H](C(=O)N[C@H](C(=O)N[C@@H](CO)C(=O)N[C@@H](CC(C)C)C(=O)N[C@H](C(=O)N[C@@H](CCCCN)C(=O)N[C@@H](CCCCN)C(N)=O)[C@@H](C)CC)[C@@H](C)O)C(C)C [CM2] (H-FLWKLIPKAISAVTSLIKK-NH2; N-terminus assumed) | 74.3 ± 9.2 | 4 | 1.9 | 8 | 3.7 | 16 | 7.4 | 4 | 16 | 7.4 | 4 | 1.9 | 8 | 3.7 | 4 | 1.9 | 1.9 | – | –
CC[C@H](C)[C@H](NC(=O)[C@H](C)NC(=O)[C@H](CCCCN)NC(=O)[C@@H]1CCCN1C(=O)[C@@H](NC(=O)[C@H](CC(C)C)NC(=O)[C@H](CCCCN)NC(=O)[C@H](Cc1c[nH]c2ccccc12)NC(=O)[C@H](CC(C)C)NC(=O)[C@@H](N)Cc1ccccc1)[C@@H](C)CC)C(=O)N[C@@H](CCCCN)C(=O)N[C@@H](C)C(=O)N[C@H](C(=O)N[C@H](C(=O)N[C@@H](CO)C(=O)N[C@@H](CC(C)C)C(=O)N[C@H](C(=O)N[C@@H](CCCCN)C(=O)N[C@@H](CCCCN)C(N)=O)[C@@H](C)CC)[C@@H](C)O)C(C)C [CM3] (H-FLWKLIPKAIKAVTSLIKK-NH2; N-terminus assumed) | 89.1 ± 12.1 | 4 | 1.8 | 4 | 1.8 | 8 | 3.6 | 4 | 8 | 3.6 | 4 | 1.8 | 4 | 1.8 | 4 | 1.8 | 1.8 | 4 to 8 | –
CC[C@H](C)[C@H](NC(=O)[C@H](C)NC(=O)[C@H](CCCCN)NC(=O)[C@@H]1CCCN1C(=O)[C@@H](NC(=O)[C@H](CC(C)C)NC(=O)[C@H](CCCCN)NC(=O)[C@H](Cc1c[nH]c2ccccc12)NC(=O)[C@H](CC(C)C)NC(=O)[C@@H](N)Cc1ccccc1)[C@@H](C)CC)C(=O)N[C@@H](CCCCN)C(=O)N[C@@H](CCCCN)C(=O)N[C@H](C(=O)N[C@H](C(=O)N[C@@H](CO)C(=O)N[C@@H](CC(C)C)C(=O)N[C@H](C(=O)N[C@@H](CCCCN)C(=O)N[C@@H](CCCCN)C(N)=O)[C@@H](C)CC)[C@@H](C)O)C(C)C [CM4] (H-FLWKLIPKAIKKVTSLIKK-NH2; N-terminus assumed) | 14.0 ± 4.7 | 4 | 1.8 | 16 | 7.1 | 16 | 7.1 | 8 | 32 | 14.2 | 4 | 1.8 | 8 | 3.6 | 16 | 7.1 | 3.6 | 4 to 32 | decreased dramatically compared with Ctriporin
CC[C@H](C)[C@H](NC(=O)[C@H](C)NC(=O)[C@H](CCCCN)NC(=O)[C@H](CCCCN)NC(=O)[C@@H](NC(=O)[C@H](CC(C)C)NC(=O)[C@H](CCCCN)NC(=O)[C@H](Cc1c[nH]c2ccccc12)NC(=O)[C@H](CC(C)C)NC(=O)[C@@H](N)Cc1ccccc1)[C@@H](C)CC)C(=O)N[C@@H](CCCCN)C(=O)N[C@@H](CCCCN)C(=O)N[C@H](C(=O)N[C@@H](CCCCN)C(=O)N[C@@H](CCCCN)C(=O)N[C@@H](CC(C)C)C(=O)N[C@H](C(=O)N[C@@H](CCCCN)C(=O)N[C@@H](CCCCN)C(N)=O)[C@@H](C)CC)C(C)C [CM7] (H-FLWKLIKKAIKKVKKLIKK-NH2; N-terminus assumed) | 57.5 ± 9.8 | 32 | 13.6 | 16 | – | 8 | 3.4 | 32 | 32 | – | 8 | 3.4 | 32 | 13.6 | 32 | 13.6 | 13.6 | 8 to 32 | positions closely to those of CM3

Reference: publication PMC10974533, “Cationicity Enhancement on the Hydrophilic Face of Ctriporin Significantly Reduces Its Hemolytic Activity and Improves the Antimicrobial Activity against Antibiotic-Resistant ESKAPE Pathogens” (Toxins, 2024)
